The values below come from US10894798B2, “Substituted dihydropyrrolopyrazole derivative” (UBE INDUSTRIES, LTD., priority 2015, dated 2021).

The structures appear in SMILES notation.

In one assay the target is T1, CDK7 (Homo sapiens, UniProt P50613).
T1 construct: purchased Carna Biosciences, Inc. 04-108
As to the kind of experiment: CDK7 enzyme inhibition test. The format is biochemical. The conditions noted are these: [γ-33P]ATP, MBP substrate, 60 min preincubation at 25°C; Ki=IC50/(1+S/Km); read-out: Ki value of CDK7 inhibitory activity. The procedure, abridged: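 Commercial human CDK7 with myelin basic protein substrate in HEPES pH 7.4 buffer with DTT, Triton X-100, MgCl2; compound preincubated 60 min at 25° C, then reaction run 20 min at 30° C after adding [γ-^33P]ATP (500 μM solution). TCA-precipitated ^33P-MBP counted by scintillation; IC50 converted to Ki via Ki=IC50/(1+S/Km).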

The target in a further assay is T2, PLK1 (Homo sapiens, UniProt P53350).
T2 construct: purchased Carna Biosciences, Inc. 05-157
The assay is described as follows: PLK1 enzyme (polo-like kinase) inhibition test. The format is biochemical. The conditions noted are these: [γ-33P]ATP, casein substrate; Ki=IC50/(1+S/Km); read-out: Ki value of PLK1 inhibitory activity. In short, it runs like this: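 Recombinant PLK1 phosphorylates casein with [γ-^33P]ATP in MOPS buffer (pH 7.0) containing DTT and magnesium acetate, 20 min at 30° C. Reaction stopped with TCA; washed precipitate counted by liquid scintillation. IC50 for inhibition of ^33P incorporation into casein, converted to Ki via Ki=IC50/(1+S/Km).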

In assay [1] the test system is human large intestine cancer cell line (HCT-116). The assay is described as follows: Human large intestine cancer (HCT-116) cell growth inhibition test. The format is cell-based. The conditions noted are these: HCT-116, 72 h, culture for 3 days, sulforhodamine B, read-out: GI50 value, HCT-116 cell growth inhibition. The procedure, abridged:
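HCT-116 cells were seeded at 0.5 to 2.0×10^3 cells/well in McCoy's 5A with 10% FBS and dosed with compound at 0.1% final DMSO after overnight culture. Growth was measured by sulforhodamine B absorbance after 3 days. GI50 was calculated from the inhibition rate at each concentration.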

Assay [2] deals with human large intestine cancer cell (HCT 116) tumor. The assay is described as follows: Tumor growth inhibition test in HCT 116-subcutaneously transplanted nude mouse. The conditions noted are these: dose of 100 mg/kg, repeated oral administration, HCT-116 in female BALB nude mice, control group = 100%, read-out: rate of suppression of tumor volume. The format is in vivo. On the procedure:
A human large intestine cancer cell line (HCT-116) was cultured in a McCoy's 5A medium containing 10% FBS and 1% penicillin/streptomycin/amphotericin B and adjusted to 1.0×10^8 cells/mL with PBS or Hanks solution (HBSS(−)). The prepared cell suspension was subcutaneously injected at 0.1 mL/mouse to the right abdomens of female BALB nude mice (supplied by Charles River Laboratories Japan, Inc.). After rearing for a certain period, the long diameter (mm) and short diameter (mm) of tumor were measured with electronic calipers, and the tumor volume was calculated according to the following expression: Tumor volume (mm^3)=(Long diameter)×(Short diameter)×(Short diameter)×0.5
Individuals whose tumor volume was within the range of 50 to 200 mm^3 were selected and grouped such that the tumor volume was almost equivalent, then a test compound or only a solvent was orally administered in a repeated manner, and the body weights and tumor volume were measured. A test compound was suspended in a 0.5 w/v % aqueous methylcellulose solution (0.5% MC) (manufactured by Wako Pure Chemical Industries, Ltd.) and orally administered at 10 mL/kg in a repeated manner. When the tumor volume of the control group was defined as 100%, the rate of suppression of tumor volume (%) at each dose of the test compound was calculated.

For assay [3], the system named is human large intestine cancer cell line HCT-116. As to the kind of experiment: In vitro cell growth inhibitory activity against human large intestine cancer line by combined use with chemotherapeutic. The format is cell-based. The conditions noted are these: Homo sapiens, 72 h; HCT-116, 3 days; 5-FU 1000 nM, single-agent treatment; read-out: Rate of inhibition of growth (%). As for the experimental part: A human large intestine cancer cell line HCT-116 (obtained from DS Pharma Biomedical Co., Ltd.) was cultured in a McCoy's 5A medium (manufactured by Thermo Fisher Scientific, Inc.) containing 10% fetal bovine serum (FBS) (manufactured by Thermo Fisher Scientific, Inc.) and 1% penicillin/streptomycin/amphotericin B (manufactured by Thermo Fisher Scientific, Inc.) and inoculated at 0.5 to 2.0×10^3 cells/well to a 96-well plate. The cells were cultured overnight in a carbon dioxide incubator of 37° C. containing 5% carbon dioxide. The medium was replaced with a fresh medium on the next day, and then, a mixed solution of a DMSO solution of a test compound (IV-361, 5-FU or SN-38) with varying concentrations and a cell culture medium (final DMSO concentration: 0.2%) was added thereto. The concentration of the test compound was 10 nM, the concentration of 5-FU (manufactured by Wako Pure Chemical Industries, Ltd.) was 1000 nM, and the concentration of SN-38 (manufactured by Tocris Bioscience) was adjusted to 1 nM to carry out the test. For a control group, a mixed solution of DMSO and a cell culture medium (final DMSO concentration: 0.2%) was used instead of the DMSO solution of the test compound.
After the addition of the DMSO solution of the test compound, the cells were cultured for 3 days in a carbon dioxide incubator. Then, the absorbance (measurement wavelength: 565 nm) of the medium in each group was measured by using In Vitro Toxicology Assay Kit Sulforhodamine B based (manufactured by Sigma-Aldrich Co. LLC.).
The rate of inhibition of growth (%) was calculated according to the expression given below. Specifically, in the case where the difference between the average absorbance before culture (day 0) and the average absorbance after culture in the test compound-administered group is the same as the difference between the average absorbance before culture (day 0) and the average absorbance after culture in the control group, the rate of inhibition of cell growth is 0%. Rate of inhibition of growth=(1−((Average absorbance of the test compound-administered group after culture)−(Average absorbance of the test compound-administered group on day 0))/((Average absorbance of the control group after culture)−(Average absorbance of the control group on day 0)))×100

For assay [4], the system named is human large intestine cancer cell line (HCT-116) tumor. The assay is described as follows: In vivo tumor growth inhibition test for human large intestine cancer cell line by combined use with chemotherapeutic. The conditions noted are these: alone.
Description: Individuals whose tumor volume was within the range of 50 to 200 mm^3 were selected and grouped such that the tumor volume was almost equivalent. After the grouping, a test compound or only a solvent was administered in a repeated manner to the mice of each group as follows:
Single-agent administration group:
Control group: solvent (administered once a day)
5-FU, oxaliplatin, and irinotecan were intraperitoneally administered (5 mL/kg).
After a lapse of a predetermined period, the body weights of the mice of each group and the long diameter and short diameter of tumor were measured, and the tumor volume of the test compound-administered group with respect to the tumor volume of the control group was calculated as the rate of suppression of tumor volume (%).

T1 sequence (P50613 whole entry): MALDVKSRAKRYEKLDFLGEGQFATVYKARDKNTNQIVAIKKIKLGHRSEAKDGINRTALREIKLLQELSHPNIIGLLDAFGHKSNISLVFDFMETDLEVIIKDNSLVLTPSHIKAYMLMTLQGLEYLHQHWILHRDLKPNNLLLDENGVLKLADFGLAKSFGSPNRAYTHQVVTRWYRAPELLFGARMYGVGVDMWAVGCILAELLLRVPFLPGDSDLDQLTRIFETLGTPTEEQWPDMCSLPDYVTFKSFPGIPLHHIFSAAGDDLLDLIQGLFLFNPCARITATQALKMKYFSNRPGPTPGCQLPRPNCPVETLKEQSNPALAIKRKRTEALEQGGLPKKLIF
T1 sequence (P51946 whole entry partner): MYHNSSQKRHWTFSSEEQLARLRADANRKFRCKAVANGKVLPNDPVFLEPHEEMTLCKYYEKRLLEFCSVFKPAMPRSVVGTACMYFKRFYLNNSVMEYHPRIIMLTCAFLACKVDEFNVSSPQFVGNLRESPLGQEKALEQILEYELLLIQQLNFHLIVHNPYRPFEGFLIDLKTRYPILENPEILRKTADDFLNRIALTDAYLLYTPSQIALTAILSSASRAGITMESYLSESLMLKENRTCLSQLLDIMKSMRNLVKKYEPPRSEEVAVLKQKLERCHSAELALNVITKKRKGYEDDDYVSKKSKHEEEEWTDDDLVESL
T1 sequence (P51948 whole entry partner): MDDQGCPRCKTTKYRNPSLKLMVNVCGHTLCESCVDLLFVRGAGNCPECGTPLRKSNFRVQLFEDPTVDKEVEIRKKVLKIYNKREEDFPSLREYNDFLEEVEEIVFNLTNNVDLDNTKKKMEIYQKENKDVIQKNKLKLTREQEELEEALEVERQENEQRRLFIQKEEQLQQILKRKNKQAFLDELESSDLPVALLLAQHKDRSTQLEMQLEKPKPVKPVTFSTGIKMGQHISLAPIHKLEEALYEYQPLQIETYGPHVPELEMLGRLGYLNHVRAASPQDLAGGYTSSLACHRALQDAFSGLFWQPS
T2 sequence (P53350 whole entry): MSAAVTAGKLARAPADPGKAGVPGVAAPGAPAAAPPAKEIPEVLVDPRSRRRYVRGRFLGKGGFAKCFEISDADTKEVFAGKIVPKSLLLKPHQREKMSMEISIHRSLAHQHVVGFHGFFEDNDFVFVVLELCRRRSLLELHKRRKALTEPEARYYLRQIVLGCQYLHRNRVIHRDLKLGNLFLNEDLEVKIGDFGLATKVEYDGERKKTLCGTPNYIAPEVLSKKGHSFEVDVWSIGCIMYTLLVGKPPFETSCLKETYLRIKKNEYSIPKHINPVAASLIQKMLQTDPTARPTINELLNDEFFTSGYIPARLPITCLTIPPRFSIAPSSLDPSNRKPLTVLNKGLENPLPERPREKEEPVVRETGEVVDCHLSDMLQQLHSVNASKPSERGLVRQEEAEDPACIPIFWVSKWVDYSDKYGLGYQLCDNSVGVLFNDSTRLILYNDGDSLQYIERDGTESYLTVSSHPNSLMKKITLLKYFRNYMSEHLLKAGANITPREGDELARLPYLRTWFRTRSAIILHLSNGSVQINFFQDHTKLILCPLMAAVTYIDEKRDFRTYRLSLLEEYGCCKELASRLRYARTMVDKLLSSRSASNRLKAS

For `CC1(C)c2[nH]nc(NC(=O)C3([Si](C)(C)C)CCC3)c2CN1C(=O)Nc1c(F)cccc1Br` [IV-121, N-(2-Bromo-6-fluorophenyl)-6,6-dimethyl-3-[1-(trimethylsilyl)cyclobutanecarboxamido]-4,6-dihydropyrrolo[3,4-c]pyrazole-5 (1H)-carboxamide], the inhibition constant (Ki) at CDK7 is at most 50 nM; on PLK1 it was at least 5000 nM. Besides, the 50% growth inhibitory concentration (GI50) in assay [1] is at most 100 nM. Further, the inhibition in vivo at 100 mg/kg in assay [2] is at least 50%.

Regarding `O=c1[nH]cc(F)c(=O)[nH]1` [5-FU, 5-Fluorouracil, reference compound], the inhibition at 1 µM in assay [3] came out at 25%. For the same compound, in assay [4] (Table 52, 5-FU 15 mg/kg/day intraperitoneal), the “Rate of suppression of tumor volume” value turned out to be 21%.

Regarding `O=C1[O][Pt]2([NH][C@@H]3CCCC[C@H]3[NH]2)[O]C1=O` [Oxaliplatin, oxaliplatin, reference compound], the “Rate of suppression of tumor volume” value in assay [4] (Table 53, oxaliplatin 3 mg/kg/day intraperitoneal) stood at 44%.
